Data from PMC7582705, “Structure-Based Discovery of Novel Chemical Classes of Autotaxin Inhibitors” (International Journal of Molecular Sciences, 2020).
Where two headings read alike, the source gives them in different places.

Assays:
[1] = target: T1, mouse ATX (Mus musculus, UniProt Q9R1E6); assay: Mode of inhibition, modified Amplex assay, Lineweaver-Burk plots; type: biochemical; settings: various LPC and inhibitor concentrations
T1 construct: purchased Sino Biological
Protocol: Lastly, to get insight into the mode of inhibition of the new ATX inhibitors developed in the present study, the Lineweaver–Burk plots were performed.
To determine the mode of inhibition of ATX by each inhibitor, a modified Amplex assay was employed. […] Mouse ATX from Sino Biological was used in all mode of inhibition assays. Thereafter, the velocity (V) of the reaction was calculated and the reciprocal of velocity (1/V) was plotted against the reciprocal of substrate concentration (1/S) in Lineweaver–Burk graphs using GraphPad Software (GraphPad Software, San Diego, CA, USA).

[2] = target: T1, mouse ATX; assay: Amplex Red Lyso-phospholipase D assay, mouse ATX; type: biochemical
Protocol: All compounds proposed were assessed for their ATX inhibitory activity in vitro using the Amplex Red assay. The Amplex Red Lyso-phospholipase D assay is a fluorometry-based assay providing a sensitive method for measuring Lyso-phospholipase D (ATX) activity in vitro. In this enzyme-coupled assay, ATX activity is monitored indirectly using 10-acetyl-3,7-dihydrophenoxazine (Amplex Red reagent), a sensitive fluorogenic probe for H2O2. ATX initially cleaves the Lysophosphatidylcholine (LPC) substrate to yield choline and Lysophosphatidic acid (LPA), while choline gets subsequently oxidized by choline oxidase to betaine and H2O2. Lastly, H2O2, in the presence of horseradish peroxidase (HRP), reacts with Amplex Red reagent in a 1:1 stoichiometry to generate the highly fluorescent product resorufin.
The inhibition assay was performed as previously described with some modifications in order to accommodate the newly-discovered lag phase in ATX kinetics. To this end, and in order to provide adequate time to the hydrolysis of LPC by ATX, we added a 30min incubation period between ATX, inhibitors and LPC. Briefly, 2 μL of different concentrations of inhibitors diluted in DMSO (Sigma-Aldrich, St. Louis, MO, USA) were incubated with 50 µL of ATX 8 nM (human or mouse ATX from Sino Biological), and 48 µL reaction buffer (50 mM Tris-Cl pH 8.0 from Thermo Fisher Scientific, Waltham, MA, USA and 5 mM CaCl2 from Honeywell-Fluka, Charlotte, NC, USA) in a black 96-well microplate for 15 min at 37 °C. Thence, another 50 µL of reaction buffer with 200 μM LPC substrate 16:0 (Avanti Polar Lipids Inc, Alabaster, AL, USA) (final concentrations of LPC and ATX are 50 µM and 2 nM, respectively) was added to the reaction mixture and incubated for 30 min at 37 °C in order for ATX to convert LPC to LPA and choline. Finally, 50 µL of working solution containing 200 μM Amplex Red (Invitrogen, Carlsbad, CA, USA), 4 U/mL HRP (Sigma-Aldrich, St. Louis, MO, USA), 0.4 U/mL choline oxidase (Sigma-Aldrich, St. Louis, MO, USA) in 50 mM Tris-HCl pH 8.0 and 5 mM CaCl2 was added to measure the produced choline. The reaction was monitored at 37 °C in a fluorescence plate reader using excitation at 530 nm and reading at 590 nm, every 5 min for 30 min. The velocity of the reaction and the remaining activity of ATX were calculated at the linear phase of the reaction and dose-response inhibition graphs were plotted with GraphPad Software (GraphPad Software, San Diego, CA, USA). […] In order to evaluate a possible effect of the compounds on the second (choline oxidase) and third (HRP) enzymes of the Amplex Red assay, we also performed the assay in the absence of ATX but in the presence of the compounds. Instead of ATX, we added choline chloride at a final concentration of 2 µM so as the second and third steps of the assay could proceed normally.

[3] = target: T2, ATX (Homo sapiens, UniProt Q13822); assay: IC50 Eleanna (Table S2, method not described); type: biochemical
[4] = Solubility (Table S1); settings: YES/NO
[5] = target: T2, ATX; assay: Amplex Red Lyso-phospholipase D assay, human ATX; type: biochemical; parameters: purchased Sino Biological; settings: for inhibition at 30 µM: read-out: %inhibition at 30uM
[6] = target: phosphodiesterase (PDE); assay: Phosphodiesterase (PDE) colorimetric assay, 3',5'-cAMP and 3',5'-cGMP as substrates; type: biochemical
Text: This colorimetric assay kit uses 3′,5′-cAMP and 3′,5′-cGMP as substrates, and it is useful for the screening of inhibitors of nucleotide phosphodiesterase activity.

[7] = target: T2, ATX; settings: LPC assay; cited from earlier work
[8] = target: T2, ATX; settings: cited from earlier work
[9] = recombinant mouse ATX 2 nM, LPC 16:0 substrate, Amplex Red, read-out: IC50 mATX
[10] = Table S2, read-out: IC50 Eleanna
[11] = recombinant human ATX 2 nM, LPC 16:0 substrate, Amplex Red, read-out: IC50 hATX

Row | SMILES | Mode of Inhibition [1] | IC50 [2, 9] [µM] | IC50 [3, 10] [nM] | inhibition at 30 µM ([5]; Table S2, at 30uM) [%] | IC50 [5, 11] [µM] | further results
1 | CCOC(=O)c1sc(SCc2ccccc2)c2c1CC(c1ccc(C)cc1)CC2O (stereo not shown) [KM03601, ethyl 3-benzylsulfanyl-4-hydroxy-6-(4-methylphenyl)-4,5,6,7-tetrahydro-2-benzothiophene-1-carboxylate] | competitive | 14.9 | 500 | 43.6 | 30.5 | IC50 ([2]; in vitro IC50 (mATX 2nM), Table S2, mATX 2nM): 15 µM; Solubility [4]: YES; IC50 ([5]; in vitro IC50 (Sino hATX 2nM), Table S2, Sino hATX 2nM): 30.6 µM; IC50 ([5]; in vitro IC50 (hATX 1nM), Table S2, hATX 1nM): 10 µM
2 | CCCCCCCCCCCCCC(=O)Nc1ccc(CP(=O)(O)O)cc1 [Compound S32826] |  |  |  |  |  | IC50 [7]: 5.6 nM
3 | N[C@@H](Cc1c[nH]cn1)C(=O)O [L-Histidine] |  |  |  |  |  | IC50 (ATX inhibition) [8]: millimolar range
4 | CCOC(=O)c1c(CN2CCCCC2)n(Cc2ccccc2)c2cc(Br)c(O)cc12 [KM-14, ethyl 1-benzyl-6-bromo-5-hydroxy-2-(piperidin-1-ylmethyl)-1H-indole-3-carboxylate] | mixed |  |  |  |  | IC50 [2]: 5.9 µM; IC50 [3]: 800 nM; IC50 [5]: 13.8 µM; inhibition at 30 µM [5]: 69%

More lines, main results first:

Row | Mode of Inhibition [1] | IC50 [2, 9] [µM] | IC50 [3, 10] [nM] | inhibition at 30 µM ([5]; Table S2, at 30uM) [%] | IC50 [5, 11] [µM] | SMILES | further results
5 | competitive |  |  |  |  | O=C(CCN1CCN(C(=O)OCc2cc(Cl)cc(Cl)c2)CC1)c1ccc2[nH]c(=O)oc2c1 [PF-8380, 3,5-Dichlorobenzyl 4-(3-oxo-3-(2-oxo-2,3-dihydrobenzo[d]oxazol-6-yl)propyl)piperazine-1-carboxylate, reference compound] | IC50 [6]: 1.1 nM; Solubility [4]: YES
6 | mixed | 6.5 | 500 | 69.8 | 14.6 | CCOC(=O)C1CCN(C(=O)Cc2c(Sc3ccc(Cl)cc3)[nH]c3ccccc23)CC1 [KM-24, ethyl 1-[2-[2-(4-chlorophenyl)sulfanyl-1H-indol-3-yl]acetyl]piperidine-4-carboxylate] | 
7 | competitive | 7.4 | 800 | 83.3 | 5.6 | COc1cccc(NC(=S)N2CCn3cccc3C2c2ccc(OC)c(OC)c2)c1 (stereo not shown) [KM-26, 1-(3,4-dimethoxyphenyl)-N-(3-methoxyphenyl)-3,4-dihydro-1H-pyrrolo[1,2-a]pyrazine-2-carbothioamide] | IC50 [6]: 2800 nM; activity against PDE ([6]; in words): outstanding activity
